The record followed here is patent US20250270159A1, “1-(CYCLOBUTANEMETHYLIDENE)-2, 4, 5-TRIMETHOXYBENZENE COMPOUND AND PREPARATION METHOD AND USE THEREOF” (CHENGDU XINRUI TAIKANG TECHNOLOGY CO., LTD., priority 2023, published 2025).

The subject of assay [1] is rat model of lithium-pilocarpine-induced epilepsy. Kind of assay: Rat model of lithium-pilocarpine-induced epilepsy (SE), highest seizure grade score. Particulars: 50 mg/kg intraperitoneal, 1 h after SE onset; acute phase; Racine 0-6. Type of assay: in vivo, Sprague Dawley (SD) rats. How it is done: (1) Experimental Animals: SPF Adult Male Sprague Dawley (SD) Rats, with a Weight of 200-250 g.
Methylscopolamine bromide, lithium chloride, and pilocarpine were weighed, and experimental drugs were dissolved to working concentrations (100 mg/mL of lithium chloride solution, 1 mg/mLof methylscopolamine bromide solution, and 20 mg/mL of pilocarpine solution) with 0.9% saline. Rats were injected intraperitoneally with lithium chloride (a dose of 127 mg/kg), and 18-20 h later, scopolamine methylbromide (a dose of 1 mg/kg) was injected intraperitoneally. […] Thereafter, an additional dose of 10 mg/kg pilocarpine was injected intraperitoneally every 30 min until the onset of a grade IV or higher status epilepticus (SE)-like seizure without significant intermittent intervals, with a maximum dose of 60 mg/kg.
Model inclusion criterion: experimental animals presenting continuous seizures of grade IV or higher for 1 h was judged as successful modeling.
The rats with successful modeling were randomly divided into three groups, namely a model group, a CTMB group, and a sodium valproate (VPA) group. […]
Referring to the grading scale of Racine scores, the seizure symptoms of each group of rats after the drug intervention were observed, and the seizure grades of each group of rats in the acute phase were recorded. […]

The subject of another assay is IL-6. Kind of assay: IL-6 in cerebral cortex of TBI rats. It counts as in vivo, SD rats. Conditions: 30 mg/kg ip 2 h after TBI; 24 h after administration; FIG. 3. On the procedure:
The experimental grouping and drug administration plan were as follows. • Sham operation group (Group P): saline was given with the same volume as in the CTMB group; • Model group (T group): a blank emulsion was given with the same volume as in the CTMB group; • Medium dose group (Group M): a dose of 30 mg/kg of CTMB emulsion injection was given.
The experimental grouping and drug administration plan were the same as the test 3. After 2 h of the TBI modeling, different groups of rats were administered intraperitoneally. After 24 h of the administration, the rats were deeply anesthetized, the head was severed and the brain was removed, about 60-120 mg of hemisphere cortex was taken out from the hemisphere on the blood side, 10 times the volume of ice-cold centrifugal buffer used for biochemical assays was added, homogenization was carried out in an ice bath for 10 min, and centrifugation was carried out at 4° C. and 14000 rpm/min for 30 min. The supernatant was extracted, and inflammatory factors IL-1, IL-6, and TNF-α were tested according to the instructions of IL-1, IL-6, and TNF-α assay kits, respectively.

The subject of assay [2] is neurons of substantia nigra region and striatum of PD mice. Kind of assay: HE staining of substantia nigra and striatum of PD mice. It counts as in vivo, C57 mice. Conditions: Group D, CTMB 20 mg/kg ip, 4 weeks; compared with model group; FIG. 5-7. On the procedure: (§1) The mice were randomly divided into a sham operation group (group S, given a blank emulsion with a volume equal to that of the administered group), a model group (group M, given a blank emulsion with a volume equal to that of the administered group), a CTMB group (20 mg/kg, group D), and a levodopa group (levodopa: benserazide hydrochloride=4:1, 12 mg/kg, group L), each group included 10-12 mice, and all of them were administered intraperitoneally.
After completing the evaluation of motor function after 4 weeks of drug administration, the mice were deeply anesthetized, perfused with 20 mL of saline and 20 mL of 4% paraformaldehyde via the heart, and the brains were rapidly severed and extracted from the head, which were then preserved and fixed in 4% paraformaldehyde for 72 h after removal, and then embedded with paraffin to prepare the slices with a thickness of 4 μm for subsequent pathological and histological studies.
Hematoxylin-eosin (HE) staining may be used to observe changes in the pathological condition of brain tissue. […]

Assay [3] deals with superoxide dismutase (SOD). Kind of assay: SOD activity in striatum of PD mice. Type of assay: in vivo, C57 mice. Conditions: Group D, CTMB 20 mg/kg ip, after 4 weeks, injured side. On the procedure:
as §1
Malondialdehyde (MDA) is a commonly used indicator of membrane lipid peroxidation, reduced glutathione (GSH) is one of the most commonly used non-enzymatic indicators of antioxidant substances, and superoxide dismutase (SOD) is a common indicator of antioxidant enzymes. After completing the evaluation of motor function after 4 weeks of drug administration, the mice were deeply anesthetized and perfused with 20 mL of saline via the heart. The brain was rapidly severed to isolate the striatal region on the injured side (right side), weighed, and placed into a 1.5 mL EP tube, and homogenized at low temperature by adding phosphate-buffered saline (PBS) at the ratio of a weight of animal tissues (g) to a volume of homogenization medium (mL) of 1:9. […]

Structures are written as SMILES.

On to `COc1cc(OC)c(OC)cc1C=C1CCC1` [CTMB, 1-(cyclobutylidenemethyl)-2,4,5-trimethoxybenzene], for which, in assay [1], the “Seizure grade score (highest, SE model rats)” value is recorded as 4.38 ± 0.52. Moreover, the “content of IL-6 in cerebral cortex tissue” value with IL-6 is listed as “significantly reduced”. The “degree of pathological damage to the substantia nigra region and striatum” value in assay [2] is on record as “reduced”. In assay [3], this compound returned an SOD of 80.24 ± 10.46 U/mg protein.
